Here are results for nine molecules from PubChem BioAssay (NCI).

Among the test systems are ACHN renal; RXF 393 renal; OVCAR-3 ovarian; MALME-3M melanoma; KM12 colon; A549 NSCLC; NCI/ADR-RES ovarian; NCI-H460 lung; M14 melanoma; TK-10 renal.
Holding throughout (assay): NCI anticancer screen, dose series, 48 h

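Five concentrations, 48 hours, 96-well plates. GI50 is the concentration that inhibits growth by half. TGI denotes the concentration required for complete inhibition of growth.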

Regarding `N#Cc1c(NCc2ccccc2)nc(NCc2ccccc2)c(C#N)c1-c1ccc(O)cc1`, the GI50 with ACHN renal was 16.9 µM; in the assay on RXF 393 renal it was 39.1 µM; with OVCAR-3 ovarian, 29.6 µM; with MALME-3M melanoma, 29.5 µM; with KM12 colon it was 16.8 µM; in the assay with A549 NSCLC, 34.1 µM. The GI50 is 47 µM in the assay on NCI/ADR-RES ovarian, 21.2 µM in the assay with NCI-H460 lung, 29.9 µM with M14 melanoma and 22.6 µM in the assay on TK-10 renal. Besides, the TGI was 57.1 µM with ACHN renal; over 100 µM in the assay on RXF 393 renal; 87.4 µM with OVCAR-3 ovarian; 68.5 µM in the assay on MALME-3M melanoma; 59.7 µM in the assay with KM12 colon; over 100 µM in the assay on A549 NSCLC. Further, the TGI in the assay with NCI/ADR-RES ovarian is over 100 µM; in the assay with NCI-H460 lung, 53.6 µM; with M14 melanoma, over 100 µM; in the assay on TK-10 renal, 69.4 µM.
Turning to `Cc1c(-c2ccc(C3CCCCC3)cc2)nc2ccc(F)cc2c1C(=O)O`, the GI50 in the assay on ACHN renal was 0.33 µM; in the assay with RXF 393 renal, 10.7 µM; in the assay on OVCAR-3 ovarian, 0.475 µM; in the assay with MALME-3M melanoma, over 51.4 µM; in the assay on KM12 colon, 0.402 µM; with A549 NSCLC it was 0.128 µM. For the same molecule, the GI50 with NCI/ADR-RES ovarian was 0.609 µM; with NCI-H460 lung it was 0.0461 µM; with M14 melanoma it was 0.788 µM; in the assay on TK-10 renal, over 76.2 µM. Besides, the TGI in the assay on ACHN renal, in the assay on RXF 393 renal, with OVCAR-3 ovarian, in the assay on MALME-3M melanoma, in the assay with KM12 colon and in the assay with A549 NSCLC was over 100 µM each time. The TGI with NCI/ADR-RES ovarian, in the assay with NCI-H460 lung, with M14 melanoma and in the assay with TK-10 renal was over 100 µM each time.
`C=C(CN1CCN(c2ccc(C(F)(F)F)cc2)CC1)c1ccc(C(=O)Nc2ccccc2N)cc1`: the GI50 with ACHN renal is 9.64 µM; with RXF 393 renal, 1.97 µM; with OVCAR-3 ovarian, 12 µM; in the assay with MALME-3M melanoma it was 19.3 µM; in the assay on KM12 colon it was 7.64 µM; in the assay with A549 NSCLC, 6.43 µM. In addition, the GI50 in the assay on NCI/ADR-RES ovarian was 3.37 µM; in the assay with NCI-H460 lung, 3.44 µM; with M14 melanoma it was over 90.5 µM; with TK-10 renal it was 21 µM. In addition, the TGI with ACHN renal was over 100 µM; in the assay on RXF 393 renal, 6 µM; in the assay with OVCAR-3 ovarian, over 100 µM; with MALME-3M melanoma, over 100 µM; with KM12 colon it was over 100 µM; in the assay with A549 NSCLC, 45.5 µM. Also, the TGI in the assay on NCI/ADR-RES ovarian was over 100 µM; in the assay on NCI-H460 lung, over 100 µM; in the assay on M14 melanoma it was over 100 µM; with TK-10 renal, over 82.4 µM.
Consider `COc1cc2c3cc1Oc1c(OC)c(OC)cc4c1C(=NCC4)Cc1ccc(cc1)Oc1cc(ccc1O)C[C@H]3N(C)CC2`, for which the TGI with ACHN renal is 83.5 µM; with RXF 393 renal it was 24.9 µM; in the assay with OVCAR-3 ovarian, 39.4 µM; with MALME-3M melanoma, 18 µM; in the assay with KM12 colon, 29.8 µM; in the assay with A549 NSCLC it was over 100 µM. Moreover, the TGI in the assay on NCI/ADR-RES ovarian was found to be 29.6 µM; in the assay on NCI-H460 lung it was 39.9 µM; in the assay with M14 melanoma it was 29.8 µM; with TK-10 renal, 43.1 µM.
Take `O=C(CC1(O)C(=O)N(Cc2ccccc2)c2ccc(Cl)cc21)c1ccc(C(=O)NCC2CCC3(CC2)OOC2(CCCCC2)OO3)cc1` (stereo not given): the GI50 in the assay with ACHN renal was 0.18 µM; in the assay on RXF 393 renal, 0.247 µM; in the assay with OVCAR-3 ovarian, 0.197 µM; with MALME-3M melanoma it was 0.209 µM; with KM12 colon, 0.268 µM; with A549 NSCLC, 0.215 µM. Also, the GI50 is 0.271 µM in the assay with NCI/ADR-RES ovarian, 0.231 µM in the assay on NCI-H460 lung, 2.52 µM in the assay on M14 melanoma and 0.181 µM with TK-10 renal. The TGI in the assay with ACHN renal worked out at 0.357 µM; in the assay with RXF 393 renal, 0.608 µM; in the assay on OVCAR-3 ovarian it was 0.419 µM; in the assay on MALME-3M melanoma, 0.537 µM; in the assay with KM12 colon, 0.782 µM; in the assay on A549 NSCLC, 0.456 µM. Besides, the TGI is 0.833 µM in the assay on NCI/ADR-RES ovarian, 0.491 µM with NCI-H460 lung, 17.3 µM in the assay on M14 melanoma and 0.358 µM in the assay with TK-10 renal.
Turning to `CSC(=NC#N)S/C=C/C(=O)c1ccccc1`, the GI50 was 28.6 µM with ACHN renal; 31.1 µM in the assay with RXF 393 renal; 31.5 µM in the assay on OVCAR-3 ovarian; 31.2 µM in the assay on MALME-3M melanoma; over 100 µM with KM12 colon; 90.6 µM with A549 NSCLC. For the same molecule, the GI50 in the assay on NCI/ADR-RES ovarian is 31.3 µM; with NCI-H460 lung, over 100 µM; in the assay with M14 melanoma, 24.7 µM; in the assay with TK-10 renal, 34.5 µM. The TGI with ACHN renal was 76.9 µM; in the assay on RXF 393 renal, 79 µM; in the assay with OVCAR-3 ovarian it was over 100 µM; in the assay with MALME-3M melanoma, 74.7 µM; in the assay on KM12 colon, over 100 µM; in the assay on A549 NSCLC it was over 100 µM. Moreover, the TGI in the assay on NCI/ADR-RES ovarian was 99.3 µM; with NCI-H460 lung, over 100 µM; in the assay with M14 melanoma, 65.8 µM; in the assay on TK-10 renal, over 100 µM.
As for `O=C(/C=C/c1ccc(Cl)cc1)c1ccccc(=O)c1O`, the TGI in the assay on ACHN renal is 6.66 µM; in the assay on RXF 393 renal, over 100 µM; with OVCAR-3 ovarian, 19.8 µM; in the assay on MALME-3M melanoma, 5.22 µM; with KM12 colon, 6.45 µM; with A549 NSCLC it was over 39.2 µM. For the same molecule, the TGI with NCI/ADR-RES ovarian was found to be 2.42 µM; in the assay with NCI-H460 lung, 3.04 µM; in the assay with M14 melanoma, 20.1 µM; in the assay with TK-10 renal it was 19.1 µM.
With `COc1ccc(C=Nc2c(C(=O)Nc3cccc(Cl)c3C)sc3nc(C)c(C(=O)/C=C/c4ccc(OC)cc4)cc23)cc1`, the GI50 in the assay with ACHN renal was 0.425 µM; with RXF 393 renal, 0.163 µM; in the assay on OVCAR-3 ovarian, 0.267 µM; in the assay with MALME-3M melanoma, 0.599 µM; with KM12 colon, 0.894 µM; in the assay with A549 NSCLC, 1.61 µM. Further, the GI50 in the assay with NCI/ADR-RES ovarian was 0.197 µM; in the assay with NCI-H460 lung, 1.93 µM; with M14 melanoma it was 0.201 µM; with TK-10 renal, 4.12 µM. Further, the TGI was over 50 µM in the assay on ACHN renal; 0.906 µM with RXF 393 renal; 5.95 µM in the assay on OVCAR-3 ovarian; over 50 µM in the assay with MALME-3M melanoma; over 43.9 µM with KM12 colon; over 50 µM in the assay with A549 NSCLC. Besides, the TGI is 1.17 µM in the assay with NCI/ADR-RES ovarian, over 29.7 µM with NCI-H460 lung, 1.57 µM with M14 melanoma and over 50 µM with TK-10 renal.
As for `C[C@H]1/C(=C/C(=O)OCCN(C)C)CC[C@H]2[C@H]1C(=O)C[C@H]1C(C)(C)[C@@H](O)CC[C@]21C`, the TGI in the assay on ACHN renal, in the assay on RXF 393 renal, in the assay with OVCAR-3 ovarian, in the assay on MALME-3M melanoma, with KM12 colon and in the assay on A549 NSCLC was over 100 µM in each case. Further, the TGI in the assay with NCI/ADR-RES ovarian, with NCI-H460 lung, in the assay on M14 melanoma and in the assay with TK-10 renal was over 100 µM in each case.
